Source: patent US20160122320A1, “USEFUL COMBINATIONS OF MONOBACTAM ANTIBIOTICS WITH BETA-LACTAMASE INHIBITORS” (Basilea Pharmaceutica AG, priority 2005, published 2016)
Values joined by “and” are separate entries in the source; they are usually repeats but may differ in a detail not shown here. Equal values may be shown once. Where a name gives a salt, the structure may show the parent alone. Blank lines part the entries; values can stand above or below the molecule they belong to.

What was measured:
Test in all cases: MIC, NCCLS broth microdilution
Assay type in all cases: cell-based
Details in all cases: for MIC of antibiotic at fixed inhibitor concentration (4 mg/L): MIC of antibiotic compound 1 with the labelled bridged monobactam of formula II and clavulanate, 4 mg/L each; for MIC of antibiotic: antibiotic alone, no inhibitor
[1] = system: Acinetobacter sp. J2
[2] = system: Klebsiella pneumoniae CF104
[3] = system: Pseudomonas aeruginosa MK1184
[4] = system: Pseudomonas aeruginosa 1973E
Procedure, shortened: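 Growth inhibition read by eye after overnight incubation (30° C. or 37° C.) defines the MIC, using NCCLS M7-A5 broth microdilution with ≤1% DMSO. When combinations were tested, only the formula I compound was titrated and each partner was fixed at 4 μg/mL.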

[5] = system: Serratia marcescens S6
[6] = system: Enterobacter cloacae P99
[7] = system: Stenotrophomonas malthophilia 1AC736
[8] = Stenotrophomonas malthophilia 1AC736
[9] = Stenotrophomonas maltophilia 1AC736
[10] = Acinetobacter baumannii J2, with clavulanate (clavulanic acid)
[11] = with clavulanate (clavulanic acid)
[12] = Stenotrophomonas maltophilia 1AC736, with clavulanate (clavulanic acid)

MIC of antibiotic at fixed inhibitor concentration (4 mg/L) ([1]; Acinetobacter sp. J2): 16 mg/L
MIC of antibiotic at fixed inhibitor concentration (4 mg/L) [2]: 1 mg/L
MIC of antibiotic at fixed inhibitor concentration (4 mg/L) [3]: >32 mg/L
MIC of antibiotic at fixed inhibitor concentration (4 mg/L) [4]: 4 mg/L
MIC of antibiotic at fixed inhibitor concentration (4 mg/L) [5]: 0.25 mg/L
MIC of antibiotic at fixed inhibitor concentration (4 mg/L) [6]: >32 mg/L
MIC of antibiotic at fixed inhibitor concentration (4 mg/L) [7, 8]: 0.125 mg/L
SMILES: O=C(Nc1cccc(CO)c1)N1CC[C@@H]2[C@H]1C(=O)N2S(=O)(=O)[O-].[Na+] [Compound 321, Sodium(1S,5R)-2-{N-[3-(hydroxymethyl)phenyl]carbamoyl}-7-oxo-2,6-diazabicyclo[3.2.0]heptane-6-sulfonate]

MIC of antibiotic at fixed inhibitor concentration (4 mg/L) ([1]; Acinetobacter sp. J2): >32 mg/L
MIC of antibiotic at fixed inhibitor concentration (4 mg/L) [2]: 1 mg/L
MIC of antibiotic at fixed inhibitor concentration (4 mg/L) [3]: >32 mg/L
MIC of antibiotic at fixed inhibitor concentration (4 mg/L) [4]: 8 mg/L
MIC of antibiotic at fixed inhibitor concentration (4 mg/L) [5]: 0.5 mg/L
MIC of antibiotic at fixed inhibitor concentration (4 mg/L) [6]: 32 mg/L
MIC of antibiotic at fixed inhibitor concentration (4 mg/L) [7, 8]: 0.125 mg/L
SMILES: C[N+]1(CC(=O)N2CC[C@@H]3[C@H]2C(=O)N3S(=O)(=O)[O-])CCN(C(=O)n2ccnc2)CC1 [Compound 407, (1S,5R)-2-{2-[4-(imidazolylcarbonyl)-1-methylpiperazinium]acetyl}-7-oxo-2,6-diazabicyclo[3.2.0]heptane-6-sulfonate, inner salt]

MIC of antibiotic at fixed inhibitor concentration (4 mg/L) ([1]; Acinetobacter sp. J2): >32 mg/L
MIC of antibiotic at fixed inhibitor concentration (4 mg/L) [2]: 2 mg/L
MIC of antibiotic at fixed inhibitor concentration (4 mg/L) [3]: >32 mg/L
MIC of antibiotic at fixed inhibitor concentration (4 mg/L) [4]: 4 mg/L
MIC of antibiotic at fixed inhibitor concentration (4 mg/L) [5]: 0.5 mg/L
MIC of antibiotic at fixed inhibitor concentration (4 mg/L) [6]: 32 mg/L
MIC of antibiotic at fixed inhibitor concentration (4 mg/L) [7, 8]: 0.125 mg/L
SMILES: CN(C)c1ccc(NC(=O)N2CC[C@@H]3[C@H]2C(=O)N3S(=O)(=O)[O-])cc1.[Na+] [Compound 309, Sodium(1S,5R)-2-{N-[4-(dimethylamino)phenyl]carbamoyl}-7-oxo-2,6-diazabicyclo[3.2.0]heptane-6-sulfonate]

MIC of antibiotic ([1]; Acinetobacter baumannii J2): 2 mg/L
MIC of antibiotic ([1]; Acinetobacter sp. J2): 2 mg/L
MIC of antibiotic [2]: <0.06 mg/L
MIC of antibiotic [3]: 2 mg/L
MIC of antibiotic [4]: 1 mg/L
MIC of antibiotic [5]: 16 mg/L
MIC of antibiotic [6]: 0.13 mg/L and 0.125 mg/L
MIC of antibiotic [7, 8]: 32 mg/L
MIC of antibiotic [7, 9]: 32 mg/L
SMILES: C[C@@H](O)[C@H]1C(=O)N2C(C(=O)O)=C(S[C@@H]3CN[C@H](C(=O)N(C)C)C3)[C@H](C)[C@H]12 [Meropenem, meropenem, reference compound]

MIC of antibiotic at fixed inhibitor concentration of 4 mg/L [1, 10]: >32 mg/L
MIC of antibiotic at fixed inhibitor concentration of 4 mg/L [2, 11]: 32 mg/L
MIC of antibiotic at fixed inhibitor concentration of 4 mg/L [3, 11]: >32 mg/L
MIC of antibiotic at fixed inhibitor concentration of 4 mg/L [4, 11]: >32 mg/L
MIC of antibiotic at fixed inhibitor concentration of 4 mg/L [5, 11]: >32 mg/L
MIC of antibiotic at fixed inhibitor concentration of 4 mg/L [6, 11]: >32 mg/L
MIC of antibiotic at fixed inhibitor concentration of 4 mg/L [7, 12]: >32 mg/L
SMILES: CC1(C)S[C@@H]2[C@H](NC(=O)[C@H](N)c3ccc(O)cc3)C(=O)N2[C@H]1C(=O)O [Amoxicillin, amoxicillin, reference compound]

SMILES: CC1C(NC(=O)C(=NOCc2cc(=O)c(O)cn2O)c2cccc(N)n2)C(=O)N1S(=O)(=O)O (stereo not shown) [Compound 20]
MIC of antibiotic ([1]; Acinetobacter baumannii J2): >32 mg/L
MIC of antibiotic at fixed inhibitor concentration of 4 mg/L ([1]; Acinetobacter baumannii J2, with 102 and clavulanate): >32 mg/L
MIC of antibiotic at fixed inhibitor concentration of 4 mg/L ([1]; Acinetobacter baumannii J2, with 206 and clavulanate): >32 mg/L
MIC of antibiotic at fixed inhibitor concentration of 4 mg/L ([1]; Acinetobacter baumannii J2, with 501): <0.06 mg/L
MIC of antibiotic at fixed inhibitor concentration of 4 mg/L [1, 10]: >32 mg/L
MIC of antibiotic [2]: >32 mg/L
MIC of antibiotic at fixed inhibitor concentration of 4 mg/L ([2]; with 102 and clavulanate): 2 mg/L
MIC of antibiotic at fixed inhibitor concentration of 4 mg/L ([2]; with 206 and clavulanate): 4 mg/L
MIC of antibiotic at fixed inhibitor concentration of 4 mg/L ([2]; with 501): 16 mg/L
MIC of antibiotic at fixed inhibitor concentration of 4 mg/L [2, 11]: 32 mg/L
MIC of antibiotic [3]: >32 mg/L
MIC of antibiotic at fixed inhibitor concentration of 4 mg/L ([3]; with 102 and clavulanate): 8 mg/L
MIC of antibiotic at fixed inhibitor concentration of 4 mg/L ([3]; with 206 and clavulanate): >32 mg/L
MIC of antibiotic at fixed inhibitor concentration of 4 mg/L ([3]; with 501): >32 mg/L
MIC of antibiotic at fixed inhibitor concentration of 4 mg/L [3, 11]: >32 mg/L
MIC of antibiotic [4]: 16 mg/L
MIC of antibiotic at fixed inhibitor concentration of 4 mg/L ([4]; with 102 and clavulanate): 32 mg/L
MIC of antibiotic at fixed inhibitor concentration of 4 mg/L ([4]; with 206 and clavulanate): 16 mg/L
MIC of antibiotic at fixed inhibitor concentration of 4 mg/L ([4]; with 501): 16 mg/L
MIC of antibiotic at fixed inhibitor concentration of 4 mg/L [4, 11]: 16 mg/L
MIC of antibiotic [5]: 4 mg/L
MIC of antibiotic at fixed inhibitor concentration of 4 mg/L ([5]; with 102 and clavulanate): 0.5 mg/L
MIC of antibiotic at fixed inhibitor concentration of 4 mg/L ([5]; with 206 and clavulanate): 0.5 mg/L
MIC of antibiotic at fixed inhibitor concentration of 4 mg/L ([5]; with 501): 2 mg/L
MIC of antibiotic at fixed inhibitor concentration of 4 mg/L [5, 11]: 2 mg/L
MIC of antibiotic [6]: >32 mg/L
MIC of antibiotic at fixed inhibitor concentration of 4 mg/L ([6]; with 102 and clavulanate): 16 mg/L
MIC of antibiotic at fixed inhibitor concentration of 4 mg/L ([6]; with 206 and clavulanate): 16 mg/L
MIC of antibiotic at fixed inhibitor concentration of 4 mg/L ([6]; with 501): >32 mg/L
MIC of antibiotic at fixed inhibitor concentration of 4 mg/L [6, 11]: >32 mg/L
MIC of antibiotic [7, 9]: 4 mg/L
MIC of antibiotic at fixed inhibitor concentration of 4 mg/L ([7]; Stenotrophomonas maltophilia 1AC736, with 102 and clavulanate): 0.25 mg/L
MIC of antibiotic at fixed inhibitor concentration of 4 mg/L ([7]; Stenotrophomonas maltophilia 1AC736, with 206 and clavulanate): 0.5 mg/L
MIC of antibiotic at fixed inhibitor concentration of 4 mg/L ([7]; Stenotrophomonas maltophilia 1AC736, with 501): 0.25 mg/L
MIC of antibiotic at fixed inhibitor concentration of 4 mg/L [7, 12]: 0.25 mg/L

MIC of antibiotic at fixed inhibitor concentration (4 mg/L) ([1]; Acinetobacter sp. J2): 16 mg/L
MIC of antibiotic at fixed inhibitor concentration (4 mg/L) [2]: 0.5 mg/L
MIC of antibiotic at fixed inhibitor concentration (4 mg/L) [3]: 32 mg/L
MIC of antibiotic at fixed inhibitor concentration (4 mg/L) [4]: 4 mg/L
MIC of antibiotic at fixed inhibitor concentration (4 mg/L) [5]: 0.25 mg/L
MIC of antibiotic at fixed inhibitor concentration (4 mg/L) [6]: 8 mg/L
MIC of antibiotic at fixed inhibitor concentration (4 mg/L) [7, 8]: 0.125 mg/L
SMILES: O=C(Nc1ccc(O)cc1)N1CC[C@@H]2[C@H]1C(=O)N2S(=O)(=O)[O-].[Na+] [Compound 316]

MIC of antibiotic at fixed inhibitor concentration (4 mg/L) ([1]; Acinetobacter sp. J2): 8 mg/L
MIC of antibiotic at fixed inhibitor concentration (4 mg/L) [2]: <0.06 mg/L
MIC of antibiotic at fixed inhibitor concentration (4 mg/L) [3]: 32 mg/L
MIC of antibiotic at fixed inhibitor concentration (4 mg/L) [4]: 4 mg/L
MIC of antibiotic at fixed inhibitor concentration (4 mg/L) [5]: 0.25 mg/L
MIC of antibiotic at fixed inhibitor concentration (4 mg/L) [6]: 32 mg/L
MIC of antibiotic at fixed inhibitor concentration (4 mg/L) [7, 8]: <0.06 mg/L
SMILES: NC(=O)c1cnccc1C(=O)NCC(=O)N1CC[C@@H]2[C@H]1C(=O)N2S(=O)(=O)O [Compound 402, (1S,5R)-2-{2-[(3-carbamoylpyridyl-4)carbonylamino]acetyl}-7-oxo-2,6-diazabicyclo[3.2.0]heptane-6-sulfonic acid]

MIC of antibiotic at fixed inhibitor concentration (4 mg/L) ([1]; Acinetobacter sp. J2): 4 mg/L
MIC of antibiotic at fixed inhibitor concentration (4 mg/L) [2]: <0.06 mg/L
MIC of antibiotic at fixed inhibitor concentration (4 mg/L) [3]: 16 mg/L
MIC of antibiotic at fixed inhibitor concentration (4 mg/L) [4]: 8 mg/L
MIC of antibiotic at fixed inhibitor concentration (4 mg/L) [5]: 0.5 mg/L
MIC of antibiotic at fixed inhibitor concentration (4 mg/L) [6]: 32 mg/L
MIC of antibiotic at fixed inhibitor concentration (4 mg/L) [7, 8]: 0.125 mg/L
SMILES: O=C(N[C@@H]1CCNC1)c1ccc[n+](CC(=O)N2CC[C@@H]3[C@H]2C(=O)N3S(=O)(=O)[O-])c1 [Compound 125, 2-(2-{3-[N-((3R)pyrrolidin-3-yl)carbamoyl]pyridinium}acetyl)(1S,5R)-7-oxo-2,6-diazabicyclo[3.2.0]heptane-6-sulfonate, inner salt]

MIC of antibiotic at fixed inhibitor concentration (4 mg/L) ([1]; Acinetobacter sp. J2): 8 mg/L
MIC of antibiotic at fixed inhibitor concentration (4 mg/L) [2]: 1 mg/L
MIC of antibiotic at fixed inhibitor concentration (4 mg/L) [3]: >32 mg/L
MIC of antibiotic at fixed inhibitor concentration (4 mg/L) [4]: 4 mg/L
MIC of antibiotic at fixed inhibitor concentration (4 mg/L) [5]: 0.25 mg/L
MIC of antibiotic at fixed inhibitor concentration (4 mg/L) [6]: 16 mg/L
MIC of antibiotic at fixed inhibitor concentration (4 mg/L) [7, 8]: 0.125 mg/L
SMILES: O=C(Nc1ccccc1)N1CC[C@@H]2[C@H]1C(=O)N2S(=O)(=O)[O-].[Na+] [Compound 301]
